# Experiments:
# [1] = test system: ERK1/2, Akt, p70S6K, PHAS-1 phosphorylation in LTED cells; test: EGF induced activation of MAP kinase, PI3 kinase and mTOR in LTED cells (Western); type: cell-based, human; conditions: pretreatment FTS 1 h, LY 294002 or rapamycin 3 h; EGF 1 μg/ml 1 h
# Excerpt: FIG. 8 represents data showing the effect of FTS on EGF induced activation of MAP kinase, PI3 kinase, and mTOR in LTED cells. […] Cells were then harvested and cell lysate prepared. Phosphorylated and total kinases were detected by Western analysis using specific antibodies.
# The effects of the specific growth factors, EFG and IGF-1 were also examined. Serum contains multiple growth factors that activate MAP kinase and PI3 kinase either by recruitment and activation of the common mediator Ras (such as EGF) or through a direct mechanism (such as IGF-1). To further explore the site of action of FTS, EGF-induced activation of MAPK and PI3 kinase was first examined. Specific inhibitors for PI3 kinase and mammalian target of rapamycin (mTOR) were included for comparison. […] One-hour treatment was chosen as the time point allowing most efficient comparisons among molecules.
# Shc = test: E2-induced Shc phosphorylation in MCF-7 cells; type: cell-based, human; conditions: 10^−10 M E2 for 3 minutes
# Procedure: Because ERα, Shc and MAP kinase are all involved in E2 action in MCF-7 cells, upstream components responsible for Shc phosphorylation were determined by measuring the effects of PP2, ICI and PD98059 on E2-induced phosphorylation of Shc. In the presence of the inhibitors, MCF-7 cells were stimulated with vehicle or 10^−10 M E2 for 3 minutes and the status of Shc phosphorylation was examined. […] No effects of these inhibitors were apparent in the absence of E2 stimulation. […] Each of these inhibitors was capable of reducing the rate of cell proliferation in LTED cells.
# LTED cells = test: [3H] thymidine incorporation into DNA, LTED cells; type: cell-based, human; conditions: inhibitors of the MAP kinase pathway
# Procedure: (§1) FIGS. 5A & 5B represent the effect of FTS on DNA synthesis in MCF-7 (FIG. 5A) and LTED (FIG. 5B) cells. One hundred thousand cells were plated into each well of 24-well plates. Two days later, the cells were re-fed with IMEM containing 5% DCC-FBS. After another two days, cells were treated in quadruplicate with the compounds indicated for 18 hours. [^3H] thymidine (1 μCi/well) was added during the last 2 h of incubation. [^3H] thymidine incorporated into DNA was normalized by protein content.
# (§2) The inhibitory effect of FTS on cell growth may be the result of inhibition of cellular proliferation, induction of apoptosis, or both. To determine the mechanism by which FTS inhibits cell growth, FTS's effect on DNA synthesis and apoptosis was investigated. […] Estradiol (10^−10 M) increased [^3H] thymidine incorporation by 2.6 fold compared to the control level in MCF-7 cells.
# MCF-7 cells [2] = test: Growth of MCF-7 cells (cell number); type: cell-based, human; conditions: E2 10^−10 M, five-day treatment
# Procedure: FIG. 3 represents the effect of FTS on the growth of MCF-7, LTED, and MCF-10A cells. Sixty thousand cells were plated into each well of 6-well plates. Two days later, the cells were treated in triplicate for five days with FTS at indicated concentrations. The results (mean±S.E.) are expressed as percentage of the vehicle control.
# FIG. 4 represents the effect of FTS on E2 stimulated growth of MCF-7 and LTED cells. Thirty thousand cells were plated into each well of 6-well plates. Two days later, the cells were re-fed with IMEM containing 5% DCC-FBS. After another two days, cells were treated in triplicate with estradiol (10^−10 M) plus various concentrations of FTS for five days. In LTED cells, fulvestrant (10^−9 M) was included in all wells to block the effect of residual estrogen in the culture. The results (mean±S.E.) are expressed as percentage of cell number from the wells containing E2.
# The effect of FTS on growth of breast cancer cells was examined in two different cell lines: MCF-7 wild type cells which represent a model for untreated breast cancer and LTED cells as a model of cells adapting to endocrine treatment. Cells were grown in their culture media and treated with FTS for five days. […] The effect of FTS on E2-stimulated growth of MCF-7 and LTED cells was the examined. Five-day treatment of MCF-7 cells with E2 (10^−10 M) increased cell number by 8-fold compared with the vehicle control. Addition of FTS reduced cell number in a dose-dependent manner with about 50% inhibition at the concentration of 50 μM […]. […] The extent of inhibition of E2-stimulated cell growth by FTS was similar in these two cell lines.
# MCF-7 cells [3] = test: [3H] thymidine incorporation into DNA, MCF-7 cells; type: cell-based, human; conditions: Estradiol 10^−10 M
# Procedure: as §1, §2
# MAP kinase = MAP kinase activation in LTED cells; type: cell-based, human
# Procedure: Upregulation of MAP kinase and PI-3-kinase could reflect either a constitutive activation of growth factor receptors, an increase in the endogenous secretion of growth factors, or other mechanisms. Inhibition of MAP kinase with a pure antiestrogen would rule out the possibility of constitutive activation of growth factor receptors or growth factor secretion. Accordingly, the pure anti-estrogen, faslodex (fulvestrant) was administered and the level of activation of MAP kinase in LTED cells was examined.
# Estrogen deprivation might trigger activation of a non-genomic, estrogen regulated, MAP kinase pathway which utilizes Shc. […] The addition of E2 stimulated MAP kinase phosphorylation in LTED cells within minutes. The increased MAP kinase phosphorylation by E2 was time and dose-dependent being greatly stimulated at 15 min and remaining elevated for at least 30 min. Maximal stimulation of MAP kinase phosphorylation was at 10^−10 M of E2.
# mTOR = molecular target: T1, mTOR (Rattus norvegicus, UniProt P42346); test: Immune complex assay of mTOR activity after incubating 293T cells with compound; type: cell-based; conditions: 293T cells incubated with 200 μM
# T1 construct: expressed in transfected cells; host or cells: 293T
# Procedure: (§3) FIGS. 12A & 12B represent data showing the effects of incubating cells with increasing concentrations of FTS and GTS on mTOR activity and mTOR association with raptor and mLST8. AU1-mTOR, HA-raptor, and HAmLST8 were overexpressed in 293T cells. The cells were then incubated for 1 h with increasing concentrations of FTS (●, ▴, ▪) or GTS (∘, Δ, □) before extracts were prepared. Immunoprecipitations were then conducted with anti-AU1 antibodies. mTOR kinase activity (●, ∘) was determined by measuring ^32P incorporation into [His^6]PHAS-I in immune complex kinases assays performed with [γ-^32P]ATP. The relative amounts of HA-raptor (▴, Δ) and HA-mLST8 (▪, □) that coimmunoprecipitated with AU1-mTOR were determined after immunoblotting with anti-HA antibodies. The results (mean values±S.E. from 3 experiments) are expressed as percentages of the mTOR activity (FIG. 12A) or coimmunoprecipitating proteins (FIG. 12B) from samples incubated without FTS or GTS, and have been corrected for the amounts of AU1-mTOR immunoprecipitated.
# FIG. 12A presents results of immune complex kinases assays with AU1-mTOR from extracts of 293T cells that had been incubated with increasing concentrations of FTS.
# Immune complex assay of mTOR activity—AU1-mTOR was immunoprecipitated by using anti-AU1 antibody bound to protein G-agarose beads as described previously (McMahon, et al., (2002) Mol. Cell. Biol. 22, 7428-7438). Endogenous mTOR was immunoprecipitated in the same manner, except that mTAb1 was used instead of anti-AU1 antibody. To measure kinase activity, exhaustively washed immune complexes were suspended in 20 μl of Buffer A (50 mM NaCl, 0.1 mM EGTA, 1 mM dithiothreitol (DTT), […], 10 mM Na-HEPES, and 50 mM β-glycerophosphate, pH 7.4.). The kinase reactions were initiated by adding 20 μl of Buffer A supplemented with 2 mM [γ-^32P]ATP, 20 mM MnCl2 and 40 μg/ml of [His^6]PHAS-I. In experiments in which the effects of wortmannin were investigated, DTT was omitted from the reactions, and [His^6]PHAS-I that had been reduced and alkylated with N-ethylmaleimide was used as substrate. Reactions were terminated after 10 min at 30° by adding SDS sample buffer. Samples were subjected to SDS-PAGE and the relative amounts of ^32P incorporated into [His^6]PHAS-I were determined.
# mTOR-raptor complex = test: Coimmunoprecipitation of raptor with mTOR from 293T cells incubated with compound; type: cell-based; conditions: 293T cells incubated with 200 μM
# Procedure: FIG. 11A & 11B represent data showing FTS inhibits PHAS-I phosphorylation and promotes dissociation of the mTOR-raptor complex in 293T cells. 293T cells were transfected with pcDNA3AU1-mTOR, pcDNA33HARaptor, pcDNA33HA-mLST8, and pCMV-Tag3APHAS-I (FIG. 11A). After 18 h the cells were incubated for 1 h with increasing concentrations of FTS before extracts were prepared. A sample of each extract was subjected to SDS-PAGE and immunoblotted to detect PHAS-I or PThr^36/45. AU1-mTOR was also immunoprecipitated from each extract, and immune complexes were subjected to SDSPAGE and immunoblotted with mTAb2, to detect mTOR, and with anti-HA antibodies, to detect HA-mLST8 and HA-raptor. Nontransfected 293T cells were incubated with increasing concentrations of FTS for 1 h before extracts were prepared. mTOR was immunoprecipitated with mTAb1, and samples were subjected to SDS-PAGE.
# as §3
# To investigate further the inhibitory effects of FTS on mTOR signaling, the effect of the drug on the association of mTOR, raptor, and mLST8 was determined. AU1-mTOR and HA-tagged forms of raptor and mLST8 were overexpressed in 293T cells, which were then incubated with increasing concentrations of FTS before AU1-mTOR was immunoprecipitated with anti-AU1 antibodies. Immunoblots were prepared with anti-HA antibodies to assess the relative amounts of HA-raptor and HA-mLST8 that coimmunoprecipitated with AU 1-mTOR (FIG. 11A).
# Results obtained with overexpressed proteins are not necessarily representative of responses of endogenous proteins. Therefore, experiments were conducted to investigate the effect FTS on the endogenous TORC1 in nontransfected cells. […]
# MCF-7 cells [4] = test: Estradiol dose response of growth, wild type MCF-7 cells; type: cell-based, human; conditions: TGF alpha 10 ng/ml
# Procedure: As further evidence of the role of MAP kinase, PD 98059 was administered to LTED cells and its effect on level of sensitivity to estradiol was examined.
# To investigate whether the MAP and P13 kinase pathways have a role in estradiol induced cell proliferation, the following experiments were conducted. […] Blockade of this effect was obtained with the MAPK inhibitor PD98059. Administration of TGF at a dose of 10 ng/ml caused a 2-log shift to the left in the ability of estradiol to stimulate the growth of wild-type MCF-7 cells. […] Dual inhibition of PI3K with LY40029 and MAPK with U0126 shifted the level of sensitivity to estradiol more dramatically, by more than 2 logs to the right. On the basis of these observations, it is believed that adaptive hypersensitivity involves the joint activation of the PI3K and MAPK pathways.
compound,measurement,setting,value
"O=c1cc(N2CCOCC2)oc2c(-c3ccccc3)cccc12 [LY 294002, reference compound]",EGF-induced ERK1/2 MAP kinase phosphorylation,[1],did not inhibit
CC(C)(C)n1nc(-c2ccc(Cl)cc2)c2c(N)ncnc21 [PP2],E2-induced Shc phosphorylation,Shc,effectively inhibited
N#CC(=C(/N)Sc1ccccc1N)/C(C#N)=C(\N)Sc1ccccc1N [U 0126],incorporation of tritiated thymidine into DNA,LTED cells,block the incorporation
"C[C@]12CC[C@@H]3c4ccc(O)cc4CC[C@H]3[C@@H]1CC[C@@H]2O [estradiol, reference compound]",increase of cell number compared with the vehicle control,MCF-7 cells [2],8 fold
same,increase of [3H] thymidine incorporation compared to control level,MCF-7 cells [3],2.6 fold
same,concentration of maximal stimulation of MAP kinase phosphorylation,MAP kinase,10^−10 M
O=c1c(-c2ccc(O)cc2)coc2cc(O)cc(O)c12 [genestein],incorporation of tritiated thymidine into DNA,LTED cells,block tritiated thymidine uptake
CC[C@H](C)C(=O)O[C@H]1CCC=C2C=C[C@H](C)[C@H](CC[C@@H]3C[C@@H](O)CC(=O)O3)[C@H]21 [mevastatin],incorporation of tritiated thymidine into DNA,LTED cells,block tritiated thymidine uptake
"CO[C@H]1C[C@@H]2CC[C@@H](C)[C@@](O)(O2)C(=O)C(=O)N2CCCC[C@H]2C(=O)O[C@H]([C@H](C)C[C@@H]2CC[C@@H](O)[C@H](OC)C2)CC(=O)[C@H](C)/C=C(\C)[C@@H](O)[C@@H](OC)C(=O)[C@H](C)C[C@H](C)/C=C/C=C/C=C/1C [rapamycin, reference compound]",EGF-induced ERK1/2 MAP kinase phosphorylation,[1],did not inhibit
"O=C([O-])c1ccccc1O.[Na+] [sodium salicylate, reference compound]",mTOR activity,mTOR,without effect
same,association of mTOR and raptor,mTOR-raptor complex,without effect
TGF alpha: growth factor used to activate MAP kinase in wild type MCF-7 cells,shift to the left of estradiol dose response for growth,MCF-7 cells [4],two log shift to the left
same,shift to the left of estradiol dose response for growth,MCF-7 cells [4]; listed as TGF,2 log

# From patent US20070037887A1, “Blockade of mtor to prevent a hormonal adaptive response” (University of Virginia Patent Foundation, priority 2003, published 2007)
